Like-named read-outs stand apart in the source and are kept apart here.
How the values were obtained:
MD-MBA-231 = assay: Broad cell line profiling, MD-MBA-231; assay type: cell-based; settings: Homo sapiens; MD-MBA-231, TNBC Breast Adenocarcinoma; read-out: PA IC50
From the text: (§1) • A panel of human and mouse cancer cell types used to assess the breadth of PA activity, including multiple therapy resistant metastatic mesenchymal tumor cell lines and primary glioblastoma patient-derived metastatic stem/tumor initiating cell populations.

[1] = in vivo; cited from earlier work
MC38 = assay: Broad cell line profiling, MC38; assay type: cell-based; settings: MC-38; MC38, Mouse Colon Carcinoma; read-out: PA IC50
From the text: as §1

GBM-A = assay: Broad cell line profiling, GBM-A; assay type: cell-based; settings: Homo sapiens, Glioblastoma Cancer Stem Cell, read-out: PA IC50
From the text: as §1

Jurkat = assay: Washout experiment, Cell Titerglo cell viability; assay type: cell-based, human; settings: for IC50: Homo sapiens, Jurkat 50 k per well
Bcl2 = Bcl2 protein level in Jurkat cells; assay type: cell-based, human; settings: 6/12 hrs
Procedure: FIG. 7. Portimine A targets NMD3 and prevents polysome formation. […] (A) Immunoblot showing reduced NMD3 levels in shNMD3 Jurkat and HeLa cells. […] Jurkat cells were treated with 12.5 nM of PA for 12 or 24 hours. Jurkat and HeLa cells were treated with 5 nM or 150 nM of PA for 24 hours. Data represents mean±SD of biologically replicated experiments (n=3). […] Cell lysates were fractionated by sucrose gradient (5-50%) and each fraction were analyzed by western blot. eIF6 levels increase in 60S subunit fraction and decrease in ribosome-free fractions after PA treatment. RPS6, a 40S and polysome subunits marker, is decreased in polysome fractions after PA treatment. Results are representative of three independent experiments. […] Relative protein levels in each fraction were normalized to the peak fraction of the indicated protein from the DMSO cells and plotted. Data represents mean±SD of biologically replicated experiments (n=3). Statistical analysis was performed using multiple unpaired Student t-test. * p≤0.05; ** p≤0.01; *** p≤0.005; **** p≤0.0001. Treatment condition: Jurkat (5 M per condition); Incubate cells (1 M/mL) with inhibitors for 6 hr, 12 hr and 24 hr, respectively.
• 1) Portimine A and its functional analogs show stereo-selective acute toxicity in cancer cells (FIG. 1). […] (B) Structure of portimine related analogs: phenyl-portimine A (Ph-PA, 36) and epi-portimine A (ePA, 38). […]

HeLa = assay: Broad cell line profiling, HeLa; assay type: cell-based; settings: Homo sapiens, Cervical Adenocarcinoma, read-out: PA IC50
From the text: as §1

## C=CC1=C[C@@H]2[C@@H]3O[C@]4(CC[C@H](O4)C(C)C[C@@H](O)C3=O)CC(O)C3=NCC[C@@]32CC1 (stereo partly shown) [PA, portimine A]
MD-MBA-231
  IC50: 0.68 nM
[1]
  LD50: 1570 µg/kg
MC38
  IC50: 0.55 nM
GBM-A
  IC50: 2.6 nM
Jurkat; read-out: IC50 after 30 min exposure, washout at 30 min, total 36 hours
  IC50: ~5 nM
Jurkat; washout at 4 hr, total 36 hours, read-out: IC50 after 4 hr exposure
  IC50: ~2 nM
Jurkat; compound washout, cell-based target engagement
  exposure resulting in minimal loss of potency: < 1 h
Jurkat; washout after 30 min, total 36 hours
  decrease in IC50 on removing compound after 30 min: ~ 5 fold
Bcl2
  Bcl2 levels: does not affect
HeLa
  IC50: 1.6 nM

From patent publication US20260242390A1, “TOTAL SYNTHESES OF PORTIMINE A AND ANALOGUES THEREOF AS SMALL MOLECULE MODULATORS OF NMD3” (priority 2023, published 2026)
